Experimental data published in article PMC6199744, “Development of Chemical Proteomics for the Folateome and Analysis of the Kinetoplastid Folateome” (ACS Infectious Diseases, 2018).
Like-named read-outs stand apart in the source and are kept apart here.

What was measured:
Type in all cases: binding
[1] = molecular target: T1, HeLa cell extract proteins (Homo sapiens, UniProt P49736)
T1 construct: endogenous in cells; host or cells: HeLa cell extract

[2] = molecular target: T2, HeLa cell extract proteins (Homo sapiens, UniProt P10619)
T2 construct: endogenous in cells; host or cells: HeLa cell extract
T2 sequence (P10619 29-480): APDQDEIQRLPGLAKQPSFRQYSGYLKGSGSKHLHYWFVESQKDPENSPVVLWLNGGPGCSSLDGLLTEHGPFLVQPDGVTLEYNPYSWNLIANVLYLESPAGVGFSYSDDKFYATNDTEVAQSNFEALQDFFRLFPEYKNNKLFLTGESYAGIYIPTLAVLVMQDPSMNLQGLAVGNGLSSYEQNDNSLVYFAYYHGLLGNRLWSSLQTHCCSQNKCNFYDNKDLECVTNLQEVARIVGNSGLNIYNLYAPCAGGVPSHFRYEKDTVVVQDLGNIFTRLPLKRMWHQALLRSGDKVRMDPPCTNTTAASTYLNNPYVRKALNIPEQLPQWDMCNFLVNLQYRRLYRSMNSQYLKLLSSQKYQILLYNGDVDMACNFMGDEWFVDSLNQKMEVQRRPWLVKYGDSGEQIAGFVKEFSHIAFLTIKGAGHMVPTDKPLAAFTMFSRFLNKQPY

[3] = molecular target: T3, HeLa cell extract proteins (Homo sapiens, UniProt O00231)
T3 construct: endogenous in cells; host or cells: HeLa cell extract

[4] = molecular target: T4, HeLa cell extract proteins (Homo sapiens, UniProt P61088)
T4 construct: endogenous in cells; host or cells: HeLa cell extract
T4 sequence (P61088 1-152): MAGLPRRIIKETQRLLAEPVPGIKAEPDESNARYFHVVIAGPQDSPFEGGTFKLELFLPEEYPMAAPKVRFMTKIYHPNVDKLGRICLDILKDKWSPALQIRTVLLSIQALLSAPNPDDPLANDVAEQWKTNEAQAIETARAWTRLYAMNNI

[5] = molecular target: T5, HeLa cell extract proteins (Homo sapiens, UniProt P55209)
T5 construct: endogenous in cells; host or cells: HeLa cell extract
T5 sequence (P55209 1-391): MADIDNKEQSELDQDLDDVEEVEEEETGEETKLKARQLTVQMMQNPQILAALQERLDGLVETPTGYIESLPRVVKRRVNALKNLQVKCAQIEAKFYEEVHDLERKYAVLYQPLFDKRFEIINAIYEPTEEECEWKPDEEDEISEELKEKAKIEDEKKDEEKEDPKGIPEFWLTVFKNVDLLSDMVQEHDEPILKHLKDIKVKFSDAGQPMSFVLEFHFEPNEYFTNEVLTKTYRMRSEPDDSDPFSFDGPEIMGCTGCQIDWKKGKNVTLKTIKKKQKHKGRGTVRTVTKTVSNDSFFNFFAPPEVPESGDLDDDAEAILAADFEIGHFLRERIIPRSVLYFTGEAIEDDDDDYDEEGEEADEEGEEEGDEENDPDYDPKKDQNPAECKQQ

[6] = molecular target: T6, HeLa cell extract proteins (Homo sapiens, UniProt Q9BW92)
T6 construct: endogenous in cells; host or cells: HeLa cell extract
T6 sequence (Q9BW92 1-718): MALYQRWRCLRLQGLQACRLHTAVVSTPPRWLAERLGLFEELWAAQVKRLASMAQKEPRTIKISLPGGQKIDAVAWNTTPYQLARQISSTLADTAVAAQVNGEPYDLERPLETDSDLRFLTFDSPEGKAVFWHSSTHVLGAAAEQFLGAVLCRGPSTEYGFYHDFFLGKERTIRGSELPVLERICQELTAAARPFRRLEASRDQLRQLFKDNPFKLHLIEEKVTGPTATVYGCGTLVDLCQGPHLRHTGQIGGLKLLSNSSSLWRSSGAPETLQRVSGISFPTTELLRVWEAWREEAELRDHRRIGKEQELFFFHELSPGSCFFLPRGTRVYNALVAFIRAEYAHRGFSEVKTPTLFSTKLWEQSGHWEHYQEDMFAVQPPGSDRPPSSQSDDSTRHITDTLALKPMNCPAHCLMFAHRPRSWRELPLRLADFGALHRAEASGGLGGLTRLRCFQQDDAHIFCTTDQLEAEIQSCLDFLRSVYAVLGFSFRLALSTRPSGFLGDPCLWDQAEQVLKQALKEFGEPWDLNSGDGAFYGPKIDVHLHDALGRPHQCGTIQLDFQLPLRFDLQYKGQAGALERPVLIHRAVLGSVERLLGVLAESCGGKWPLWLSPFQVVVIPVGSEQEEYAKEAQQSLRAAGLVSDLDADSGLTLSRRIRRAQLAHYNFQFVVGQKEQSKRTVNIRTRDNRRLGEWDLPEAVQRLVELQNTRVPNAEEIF

[7] = molecular target: T7, HeLa cell extract proteins (Homo sapiens, UniProt Q9UBB4); conditions: protein Ataxin-10; HeLa
T7 construct: endogenous in cells; host or cells: HeLa cell extract
T7 sequence (Q9UBB4 1-475): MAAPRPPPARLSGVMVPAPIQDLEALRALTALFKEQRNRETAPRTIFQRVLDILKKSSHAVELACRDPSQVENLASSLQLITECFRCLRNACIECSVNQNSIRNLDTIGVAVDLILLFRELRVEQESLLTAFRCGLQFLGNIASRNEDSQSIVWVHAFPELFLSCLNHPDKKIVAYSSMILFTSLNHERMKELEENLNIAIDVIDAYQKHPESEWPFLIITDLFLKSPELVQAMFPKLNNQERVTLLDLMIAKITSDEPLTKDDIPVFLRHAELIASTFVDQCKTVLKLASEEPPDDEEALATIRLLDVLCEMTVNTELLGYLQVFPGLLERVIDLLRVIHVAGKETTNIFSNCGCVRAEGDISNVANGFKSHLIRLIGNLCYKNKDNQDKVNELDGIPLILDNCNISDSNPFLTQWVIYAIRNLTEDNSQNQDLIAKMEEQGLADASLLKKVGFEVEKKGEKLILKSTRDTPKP

T3 sequence (O00231 whole entry): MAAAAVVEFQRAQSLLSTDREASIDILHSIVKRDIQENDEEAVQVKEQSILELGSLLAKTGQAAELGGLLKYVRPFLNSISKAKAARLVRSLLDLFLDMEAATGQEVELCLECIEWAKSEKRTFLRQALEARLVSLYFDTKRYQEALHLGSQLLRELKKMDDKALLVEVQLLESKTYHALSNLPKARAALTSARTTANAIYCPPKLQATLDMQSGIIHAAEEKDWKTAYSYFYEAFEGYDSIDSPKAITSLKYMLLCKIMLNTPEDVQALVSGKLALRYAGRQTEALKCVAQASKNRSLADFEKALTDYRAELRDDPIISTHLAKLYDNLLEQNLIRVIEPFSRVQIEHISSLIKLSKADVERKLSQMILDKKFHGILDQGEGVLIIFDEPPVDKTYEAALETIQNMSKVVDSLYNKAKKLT
T1 sequence (P49736 whole entry): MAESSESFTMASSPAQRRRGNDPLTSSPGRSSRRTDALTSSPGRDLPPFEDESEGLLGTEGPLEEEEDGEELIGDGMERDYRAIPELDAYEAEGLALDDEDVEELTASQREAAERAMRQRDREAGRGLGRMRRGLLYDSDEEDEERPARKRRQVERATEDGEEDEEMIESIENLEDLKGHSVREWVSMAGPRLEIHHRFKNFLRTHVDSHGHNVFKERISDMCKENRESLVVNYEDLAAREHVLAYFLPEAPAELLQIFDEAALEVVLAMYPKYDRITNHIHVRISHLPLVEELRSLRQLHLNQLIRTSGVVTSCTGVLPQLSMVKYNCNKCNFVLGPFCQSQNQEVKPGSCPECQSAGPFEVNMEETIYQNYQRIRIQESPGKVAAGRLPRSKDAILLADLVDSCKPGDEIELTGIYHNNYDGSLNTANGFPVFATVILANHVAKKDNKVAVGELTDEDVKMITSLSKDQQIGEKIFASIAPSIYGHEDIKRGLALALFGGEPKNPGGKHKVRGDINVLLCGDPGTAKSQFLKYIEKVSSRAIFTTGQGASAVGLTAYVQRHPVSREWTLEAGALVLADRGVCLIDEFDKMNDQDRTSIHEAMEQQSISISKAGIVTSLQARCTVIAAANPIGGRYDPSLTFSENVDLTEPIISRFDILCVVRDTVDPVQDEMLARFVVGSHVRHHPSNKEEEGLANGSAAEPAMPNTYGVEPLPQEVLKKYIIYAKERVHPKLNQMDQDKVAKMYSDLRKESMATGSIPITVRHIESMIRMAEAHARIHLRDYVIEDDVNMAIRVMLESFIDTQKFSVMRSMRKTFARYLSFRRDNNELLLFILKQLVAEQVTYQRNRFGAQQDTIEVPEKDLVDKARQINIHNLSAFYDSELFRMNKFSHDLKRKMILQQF

Nc1nc2c(c(=O)[nH]1)N(C=O)C(CNc1ccc(C(=O)N[C@@H](CCC(=O)O)C(=O)O)cc1)CN2 (stereo partly drawn) [LEU, leucovorin]
fold changes relative to vehicle control ([1]; HeLa, protein MCM2): 1.06
fold changes relative to vehicle control ([2]; HeLa, protein CTSA): 1.01
fold changes relative to vehicle control ([3]; protein PSMD11, HeLa): 1.03
fold changes relative to vehicle control ([4]; HeLa, protein UBE2N): 1.06
fold changes relative to vehicle control ([5]; HeLa, captured protein NAP1L1): 0.97
fold changes relative to vehicle control ([6]; HeLa, protein TARS2): 0.91

Nc1nc2[nH]cc(CCc3ccc(C(=O)N[C@@H](CCC(=O)O)C(=O)O)cc3)c2c(=O)[nH]1 [PTX, pemetrexed]
fold changes relative to vehicle control [1]: 1.05
fold changes relative to vehicle control [2]: 0.77
fold changes relative to vehicle control [3]: 1.02
fold changes relative to vehicle control [4]: 1.83
fold changes relative to vehicle control [5]: 1.04
fold changes relative to vehicle control [6]: 0.87

CCCCCCOc1ccc(Cc2cnc(N)nc2N)cc1 [compound 1]
fold changes relative to vehicle control [7]: 1.14

CCCCCCOc1cccc(Cc2cnc(N)nc2N)c1 [compound 2]
fold changes relative to vehicle control [7]: 1.4

Nc1nc2cccc(-c3ccccc3)c2n1Cc1ccc(Cl)c(Cl)c1 [compound 3]
fold changes relative to vehicle control [7]: 1.04

NCCOCCOCC(=O)Nc1nc2ncc(CNc3ccc(C(=O)NC(CCC(=O)O)C(=O)O)cc3)nc2c(=O)[nH]1 (stereo not drawn) [compound 6]
fold changes relative to vehicle control ([1]; HeLa, protein MCM2): 1.18
fold changes relative to vehicle control ([2]; HeLa, protein CTSA): 0.87
fold changes relative to vehicle control ([3]; protein PSMD11, HeLa): 1.11
fold changes relative to vehicle control ([4]; HeLa, protein UBE2N): 1.78
fold changes relative to vehicle control ([5]; HeLa, captured protein NAP1L1): 1.19
fold changes relative to vehicle control ([6]; HeLa, protein TARS2): 1.13

NCCCNc1ccc(C(=O)NC(CCC(=O)O)C(=O)O)cc1 (stereo not drawn) [compound 7]
fold changes relative to vehicle control ([1]; HeLa, protein MCM2): 0.88
fold changes relative to vehicle control ([2]; HeLa, protein CTSA): 1.13
fold changes relative to vehicle control ([3]; protein PSMD11, HeLa): 0.9
fold changes relative to vehicle control ([4]; HeLa, protein UBE2N): 1.19
fold changes relative to vehicle control ([5]; HeLa, captured protein NAP1L1): 1.06
fold changes relative to vehicle control ([6]; HeLa, protein TARS2): 1
